From ChEMBL document CHEMBL1143183, “New polyphenols active on beta-amyloid aggregation” (Bioorg Med Chem Lett, 2008) come the findings set out here.

Experiment [1] is described as follows: Inhibition of beta amyloid 25-35 fibril formation at 10 uM.
Experiment [2] in a line: Inhibition of beta amyloid 25-35 fibril formation.

Broadly, the inhibition is how much of the control response was suppressed. Low values mean a weak effect, high ones a strong effect. In experiment [1], `COc1cc(/C=C/c2ccc(O)cc2)cc(OC)c1` came in with an inhibition of 35%.
Regarding `COc1cccc(OC)c1C(=O)OCc1cc(O)ccc1O[C@@H]1O[C@H](CO)[C@@H](O)[C@H](O)[C@H]1O`, in experiment [1], the inhibition is 28%.
The same measure, in the same setting: with `O=C(O)/C=C/c1ccc(O)c(O)c1` the figure was 15%.
`O=C(O)/C=C/c1ccc(O)cc1`: the inhibition in experiment [1] stood at 17%.
On the same count and under the same terms, the value for `O=C(O)c1ccc(O)cc1` was 29%; that for `O=C(O[C@@H]1Cc2c(O)cc(O)cc2O[C@@H]1c1cc(O)c(O)c(O)c1)c1cc(O)c(O)c(O)c1` was 13%; that for `O=C(O[C@@H]1Cc2c(O)cc(O)cc2O[C@@H]1c1ccc(O)c(O)c1)c1cc(O)c(O)c(O)c1` was 13%.
The same measure, in the same setting: with `OC[C@H]1O[C@@H](Oc2cc3c(O)cc(O)cc3[o+]c2-c2ccc(O)c(O)c2)[C@H](O)[C@@H](O)[C@@H]1O` the figure was 31%.
On the same count and under the same terms, the value for `Oc1cc(O)c2c(c1)O[C@H](c1cc(O)c(O)c(O)c1)[C@H](O)C2` was 18%; that for `Oc1cc(O)c2cc(O)c(-c3cc(O)c(O)c(O)c3)[o+]c2c1` was 26%.
With `Oc1cc(O)c2cc(O)c(-c3ccc(O)c(O)c3)[o+]c2c1`, in experiment [1], the inhibition is 35%.
Broadly, the EC50 is the concentration at which the effect is half-maximal. `COc1cccc(O)c1C(=O)OCc1cc(O)ccc1O[C@@H]1O[C@H](CO)[C@@H](O)[C@H](O)[C@H]1O` [CURCULIGOSIDE B]: in experiment [1], the inhibition was 53%. The same molecule showed an EC50 in experiment [2] of 8.5 µM.
On the same counts, the results for `COc1ccc(O)c(OC)c1C(=O)OCc1ccccc1O[C@@H]1O[C@H](CO)[C@@H](O)[C@H](O)[C@H]1O` [CURCULIGOSIDE D] are 49% and 9.5 µM.
On the same counts, the results for `COc1cc(/C=C/C(=O)CC(=O)/C=C/c2ccc(O)c(OC)c2)ccc1O` [CURCUMIN] are 45% and 10 µM.
On the same counts, the results for `COc1cc(-c2[o+]c3cc(O)cc(O)c3cc2O)cc(OC)c1O` [MALVIDIN] are 46% and 10 µM.
The molecule `COc1cc(-c2[o+]c3cc(O)cc(O)c3cc2O[C@@H]2O[C@H](CO)[C@@H](O)[C@H](O)[C@H]2O)cc(OC)c1O` [OENIN] registered an inhibition in experiment [1] of 44%. Besides, the EC50 in experiment [2] worked out at 10 µM.
On the same counts, the results for `Oc1ccc(/C=C/c2cc(O)cc(O)c2)cc1` [RESVERATROL] are 63% and 6 µM.
